# Laboratory results reported in PMC7180638, “Synthesis of Pyrrolidine Monocyclic Analogues of Pochonicine and Its Stereoisomers: Pursuit of Simplified Structures and Potent β-N-Acetylhexosaminidase Inhibition” (Molecules, 2020).
# Counter-ions that a name gives are not always drawn. Like-named read-outs stand apart in the source and are kept apart here.
# How the values were obtained:
# Assay type in all cases: biochemical
# Rat intestinal maltase = Rat intestinal maltase inhibition; conditions: α-Glucosidase
# Method: (§1) With rat intestinal maltase as an exception, other enzymes were purchased from Sigma-Aldrich Chemical Co. (St. Louis, MO, USA). Brush border membranes prepared from rat small intestine according to the method of Kessler et al. were assayed at pH 6.8 for rat intestinal maltase using maltose. The released D-glucose was determined colorimetrically using the Glucose CII-test Wako (Wako Pure Chemical Ind.; Osaka, Japan). Other glycosidase activities were determined using an appropriate p-nitrophenyl glycoside as substrate in a buffer solution at the optimal pH value of each enzyme. The reaction was stopped by adding 400 mM Na2CO3. The released p-nitrophenol was measured spectrometrically at 400 nm.
# β-Glucosidase (Almond) = test: β-Glucosidase (almond) inhibition
# Method: as §1
# [1] = target: T1, α-Mannosidase (Jack bean) (Canavalia ensiformis, UniProt C0HJB3); test: α-Mannosidase (Jack bean) inhibition
# T1 construct: purchased Sigma-Aldrich Chemical Co
# T1 sequence (C0HJB3 1-981): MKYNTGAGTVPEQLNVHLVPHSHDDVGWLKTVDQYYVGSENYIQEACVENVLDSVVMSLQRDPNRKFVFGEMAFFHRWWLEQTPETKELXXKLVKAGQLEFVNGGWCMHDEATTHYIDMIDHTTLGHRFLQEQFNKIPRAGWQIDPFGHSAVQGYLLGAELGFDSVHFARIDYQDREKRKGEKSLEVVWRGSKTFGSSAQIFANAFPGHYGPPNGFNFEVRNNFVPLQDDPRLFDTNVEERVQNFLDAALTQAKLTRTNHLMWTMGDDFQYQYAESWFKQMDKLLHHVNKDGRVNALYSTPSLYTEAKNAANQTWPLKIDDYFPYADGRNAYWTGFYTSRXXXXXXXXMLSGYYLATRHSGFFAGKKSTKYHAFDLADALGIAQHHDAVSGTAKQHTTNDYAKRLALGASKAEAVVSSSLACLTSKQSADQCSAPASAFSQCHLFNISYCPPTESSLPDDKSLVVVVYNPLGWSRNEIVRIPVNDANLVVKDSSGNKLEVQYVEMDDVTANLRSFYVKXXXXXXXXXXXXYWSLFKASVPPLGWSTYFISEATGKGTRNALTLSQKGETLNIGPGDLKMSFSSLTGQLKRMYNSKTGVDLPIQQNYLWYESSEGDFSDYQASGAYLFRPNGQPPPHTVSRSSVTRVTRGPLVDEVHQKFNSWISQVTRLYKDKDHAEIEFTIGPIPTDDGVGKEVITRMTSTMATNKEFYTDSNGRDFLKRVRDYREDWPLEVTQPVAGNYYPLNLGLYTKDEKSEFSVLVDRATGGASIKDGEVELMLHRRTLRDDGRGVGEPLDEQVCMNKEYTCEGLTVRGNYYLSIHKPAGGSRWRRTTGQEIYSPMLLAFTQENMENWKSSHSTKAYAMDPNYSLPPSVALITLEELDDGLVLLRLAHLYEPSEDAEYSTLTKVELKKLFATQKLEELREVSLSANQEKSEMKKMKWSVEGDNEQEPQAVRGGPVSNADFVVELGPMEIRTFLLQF
# Method: as §1
# [2] = target: T2, α,α-Trehalase (Porcine kidney) (Sus scrofa, UniProt I3LIR5); test: α,α-Trehalase (porcine kidney) inhibition
# T2 construct: purchased Sigma-Aldrich Chemical Co; host or cells: porcine kidney
# T2 sequence (I3LIR5 24-583): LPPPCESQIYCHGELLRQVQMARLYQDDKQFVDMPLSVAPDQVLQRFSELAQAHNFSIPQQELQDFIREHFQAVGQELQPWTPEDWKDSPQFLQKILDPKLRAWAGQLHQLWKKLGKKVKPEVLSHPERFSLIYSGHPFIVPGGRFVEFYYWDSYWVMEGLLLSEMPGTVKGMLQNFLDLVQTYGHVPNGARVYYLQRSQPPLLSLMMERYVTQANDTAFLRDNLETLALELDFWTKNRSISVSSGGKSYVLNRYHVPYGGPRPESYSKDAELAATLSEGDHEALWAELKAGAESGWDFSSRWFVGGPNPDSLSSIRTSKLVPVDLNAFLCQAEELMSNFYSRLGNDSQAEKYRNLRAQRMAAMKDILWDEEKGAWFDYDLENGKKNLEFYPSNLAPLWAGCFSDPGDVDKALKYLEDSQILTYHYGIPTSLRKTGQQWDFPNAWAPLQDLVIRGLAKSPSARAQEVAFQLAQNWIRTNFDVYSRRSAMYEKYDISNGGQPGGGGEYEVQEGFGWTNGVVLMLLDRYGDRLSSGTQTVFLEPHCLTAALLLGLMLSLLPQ
# Method: as §1
# [3] = target: T3, β-Glucuronidase (Bovine liver) (Bos taurus, UniProt A3KMY8); test: β-Glucuronidase (bovine liver) inhibition
# T3 construct: purchased Sigma-Aldrich Chemical Co; host or cells: bovine liver
# T3 sequence (A3KMY8 1-652): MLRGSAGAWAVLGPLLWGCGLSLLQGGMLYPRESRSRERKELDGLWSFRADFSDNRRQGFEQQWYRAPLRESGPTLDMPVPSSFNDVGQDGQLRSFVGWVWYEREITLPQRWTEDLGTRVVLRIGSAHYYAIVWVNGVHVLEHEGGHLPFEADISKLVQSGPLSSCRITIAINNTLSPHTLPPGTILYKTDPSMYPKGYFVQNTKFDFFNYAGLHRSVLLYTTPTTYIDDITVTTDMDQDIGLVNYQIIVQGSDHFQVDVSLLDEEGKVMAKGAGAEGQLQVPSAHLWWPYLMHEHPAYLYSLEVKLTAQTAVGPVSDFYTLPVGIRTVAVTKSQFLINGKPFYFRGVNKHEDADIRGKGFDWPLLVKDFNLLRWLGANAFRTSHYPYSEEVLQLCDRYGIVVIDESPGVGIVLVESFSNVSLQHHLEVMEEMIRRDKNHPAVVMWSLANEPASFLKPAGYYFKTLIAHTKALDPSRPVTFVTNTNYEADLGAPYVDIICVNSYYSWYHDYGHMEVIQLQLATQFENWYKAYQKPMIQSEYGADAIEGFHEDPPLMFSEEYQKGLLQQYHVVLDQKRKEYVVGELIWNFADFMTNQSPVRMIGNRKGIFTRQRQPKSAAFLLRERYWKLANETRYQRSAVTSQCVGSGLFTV
# Method: as §1
# [4] = target: β-N-Acetylhexosaminidase (Bovine liver); test: β-N-Acetylhexosaminidase (bovine liver) inhibition; conditions: for IC50: β-N-Acetylhexosaminidase (β-GlcNAcase); for Inhibition % at 1000 μM: β-N-Acetylhexosaminidase
# Method: as §1
# [5] = target: β-N-Acetylgalactosaminidase (HL60); test: β-N-Acetylgalactosaminidase (HL60) inhibition
# Method: as §1
# [6] = 1000 μM, read-out: Inhibition % at 1000 μM
Structure (SMILES),IC50 (Rat intestinal maltase; read-out: IC50) [µM],IC50 (β-Glucosidase (Almond); read-out: IC50) [µM],"inhibition at 1000 µM [1, 6] [%]",inhibition at 1000 µM ([1]; read-out: IC50) [%],"inhibition at 1000 µM [2, 6] [%]",inhibition at 1000 µM ([2]; read-out: IC50) [%],"inhibition at 1000 µM [3, 6] [%]",inhibition at 1000 µM ([3]; read-out: IC50) [%],IC50 ([4]; read-out: IC50) [µM],IC50 ([5]; read-out: IC50) [µM],IC50 (β-Glucosidase (Almond)),Inhibition % at 1000 μM (β-Glucosidase (Almond)) [%],IC50 [5],Inhibition % at 1000 μM [5] [%],IC50 (Rat intestinal maltase),Inhibition % at 1000 μM (Rat intestinal maltase) [%],IC50 [4],Inhibition % at 1000 μM [4] [%],IC50 [1] [µM]
"CC(=O)NC[C@H]1N[C@H](CO)[C@@H](O)[C@@H]1O [4·HCl, 1-N-acetylamino-2,5-imino-1,2,5-trideoxy-D-mannitol hydrochloride]",211,170,0,< 50,20.3,< 50,1.7,< 50,4.7,9.5,,,,,,,,,
"CC(=O)NC[C@@H]1N[C@@H](CO)[C@H](O)[C@H]1O [A-10, 1-N-acetylamino-2,5-imino-1,2,5-trideoxy-L-mannitol hydrochloride]",92,,0,< 50,4.3,< 50,4.6,< 50,943,,NI (No Inhibition (less than 50% at 1000 μM)),16.1,NI (No Inhibition (less than 50% at 1000 μM)),13.0,,,,,
"CC(=O)NC[C@@H]1N[C@@H](CO)[C@@H](O)[C@H]1O [C-10, 1-N-acetylamino-2,5-imino-1,2,5-trideoxy-L-altritol hydrochloride]",,,0.4,< 50,0,< 50,0,< 50,,,NI (No Inhibition (less than 50% at 1000 μM)),0,NI (No Inhibition (less than 50% at 1000 μM)),1.4,NI (No Inhibition (less than 50% at 1000 μM)),35.4,NI (No Inhibition (less than 50% at 1000 μM)),36.3,
"CC(=O)NC[C@H]1N[C@H](CO)[C@H](O)[C@@H]1O [D-10, 1-N-acetylamino-2,5-imino-1,2,5-trideoxy-D-altritol hydrochloride]",,,,,0,< 50,1.3,< 50,,8.8,NI (No Inhibition (less than 50% at 1000 μM)),41.0,,,NI (9.24%) (No Inhibition (less than 50% at 1000 μM)),,,,205
"CC(=O)NC[C@H]1N[C@@H](CO)[C@@H](O)[C@@H]1O [E-10a, 1-N-acetylamino-2,5-imino-1,2,5-trideoxy-D-glucitol hydrochloride]",,,0.7,< 50,5.6,< 50,0,< 50,95,490,NI (No Inhibition (less than 50% at 1000 μM)),37.9,,,NI (No Inhibition (less than 50% at 1000 μM)),12.7,,,
"CC(=O)NC[C@@H]1N[C@@H](CO)[C@@H](O)[C@@H]1O [E-10b, 1-N-acetylamino-2,5-imino-1,2,5-trideoxy-L-iditol hydrochloride]",,,3.8,< 50,0,< 50,4.3,< 50,,,NI (No Inhibition (less than 50% at 1000 μM)),1.2,NI (No Inhibition (less than 50% at 1000 μM)),10.1,NI (No Inhibition (less than 50% at 1000 μM)),0,NI (No Inhibition (less than 50% at 1000 μM)),38.4,
"CC(=O)NC[C@@H]1N[C@H](CO)[C@H](O)[C@H]1O [F-10a, 1-N-acetylamino-2,5-imino-1,2,5-trideoxy-L-glucitol hydrochloride]",,,0,< 50,3,< 50,0,< 50,,,NI (No Inhibition (less than 50% at 1000 μM)),11.6,NI (No Inhibition (less than 50% at 1000 μM)),0.9,NI (No Inhibition (less than 50% at 1000 μM)),14.6,NI (No Inhibition (less than 50% at 1000 μM)),23.2,
"CC(=O)NC[C@H]1N[C@H](CO)[C@H](O)[C@H]1O [F-10b, 1-N-acetylamino-2,5-imino-1,2,5-trideoxy-D-iditol hydrochloride]",,,1.6,< 50,0,< 50,0,< 50,652,,NI (No Inhibition (less than 50% at 1000 μM)),19.8,NI (No Inhibition (less than 50% at 1000 μM)),36.1,NI (No Inhibition (less than 50% at 1000 μM)),12.7,,,
